Test results published in US9458104B2 (priority 2012, dated 2016).

Assays:
RORγ = target: T1, RORγ (UniProt P51449); assay type: cell-based; conditions: 293T cells, 16 h; for pIC50 (FF): firefly (FF) luciferase; for pIC50 (REN): renilla normalised (RENnorm) luciferase
T1 construct: hRORg-LBD|aa259-518|NP_005051.2; hRORgt|aa1-497|NP_001001523 (RORg, t isoform, 497aa); mRORg-LBD|aa264-516|NP_035411
T1 sequence (P51449 1-518): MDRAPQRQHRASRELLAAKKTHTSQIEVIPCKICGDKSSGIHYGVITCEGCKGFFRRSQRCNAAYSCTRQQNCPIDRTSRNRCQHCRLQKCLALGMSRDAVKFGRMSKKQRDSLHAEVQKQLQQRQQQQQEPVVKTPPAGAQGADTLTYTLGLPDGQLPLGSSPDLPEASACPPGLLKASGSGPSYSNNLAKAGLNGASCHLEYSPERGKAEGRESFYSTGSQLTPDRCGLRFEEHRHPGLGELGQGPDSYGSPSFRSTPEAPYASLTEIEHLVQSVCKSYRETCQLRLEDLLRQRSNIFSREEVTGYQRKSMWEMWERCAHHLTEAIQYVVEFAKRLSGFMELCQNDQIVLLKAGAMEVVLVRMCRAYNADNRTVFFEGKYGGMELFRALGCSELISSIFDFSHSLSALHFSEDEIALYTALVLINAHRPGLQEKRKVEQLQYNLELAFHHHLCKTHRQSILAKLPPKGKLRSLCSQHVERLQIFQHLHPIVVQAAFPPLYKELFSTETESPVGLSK

[1] = target: T2, RORγ ligand binding domain (LBD) (Homo sapiens, UniProt P51449); test: TR-FRET Activity Assay (ligand sensing assay, RORγ-LBD / coactivator peptide interaction); assay type: biochemical
T2 construct: made in house; host or cells: E. coli BL-21 (BL3), vector pDEST15
T2 sequence (P51449 269-508 limits assumed): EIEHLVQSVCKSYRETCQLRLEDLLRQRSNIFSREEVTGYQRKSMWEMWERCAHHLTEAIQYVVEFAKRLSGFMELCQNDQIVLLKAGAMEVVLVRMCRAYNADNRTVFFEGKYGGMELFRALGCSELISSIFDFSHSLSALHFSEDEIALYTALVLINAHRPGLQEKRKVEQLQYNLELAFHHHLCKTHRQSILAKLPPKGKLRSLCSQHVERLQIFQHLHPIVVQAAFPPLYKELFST
Method in brief: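 GST-RORγ LBD expressed in bacteria, 20–60 ng/well, with biotinylated coactivator peptide 200–600 nM, streptavidin-APC and Eu-anti-GST. Buffer: 20 mM Tris-HCl pH 6.8, 60 mM KCl, 1 mM DTT, 5 mM MgCl2, BSA; 1% DMSO. LANCE TR-FRET 665/615 nm ratio; IC50 from four-parameter logistic fit.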

SMILES	pIC50 (FF) (RORγ)	pIC50 (REN) (RORγ)	IC50 [1]
CC(C)(C)c1cc(-c2nc(C(N)=O)nn2CC2CCCCC2)cc(C(C)(C)C)c1O [Example 306, 1-(Cyclohexylmethyl)-5-(3,5-di-tert-butyl-4-hydroxyphenyl)-1H-1,2,4-triazole-3-carboxamide]	5.9	6.0	794 nM
CC(C)(C)c1cc(-c2nc(C(=O)NC3CC3)nn2CC2CCCCC2)cc(C(C)(C)C)c1 [Example 307, 1-(Cyclohexylmethyl)-N-cyclopropyl-5-(3,5-di-tert-butylphenyl)-1H-1,2,4-triazole-3-carboxamide]	5.9	6.1	794 nM
Cc1cc(-c2nc(C(N)=O)nn2CC2CCCCC2)cc(C(C)(C)C)c1O [Example 308, 5-(3-(tert-Butyl)-4-hydroxy-5-methylphenyl)-1-(cyclohexylmethyl)-1H-1,2,4-triazole-3-carboxamide]	6.0	5.9	7940 nM
CC(C)(C)c1cc(-c2nc(S(N)(=O)=O)nn2CC2CCCCC2)cc(C(C)(C)C)c1 [Example 309, 1-(Cyclohexylmethyl)-5-(3,5-di-tert-butylphenyl)-1H-1,2,4-triazole-3-sulfonamide]	< 4.7	< 4.7	3160 nM
CC(=O)NS(=O)(=O)c1nc(-c2cc(C(C)(C)C)cc(C(C)(C)C)c2)n(CC2CCCCC2)n1 [Example 310, N-((1-(Cyclohexylmethyl)-5-(3,5-di-tert-butylphenyl)-1H-1,2,4-triazol-3-yl)sulfonyl)acetamide]	< 4.7	< 4.7	12600 nM
CC(C)(C)c1cc(-n2nc(C(N)=O)cc2CC2CCCCC2)cc(C(C)(C)C)c1 [Example 312, 5-(Cyclohexylmethyl)-1-(3,5-di-tert-butylphenyl)-1H-pyrazole-3-carboxamide]	6.2	6.3	251 nM
CC(C)(C)c1cc(-n2nc(C(=O)NS(C)(=O)=O)cc2CC2CCCCC2)cc(C(C)(C)C)c1 [Example 312/1]	< 4.7	< 4.7	6310 nM
CC(C)(C)c1cc(-n2nc(C(N)=O)c(Cl)c2CC2CCCCC2)cc(C(C)(C)C)c1 [Example 313, 4-Chloro-5-(cyclohexylmethyl)-1-(3,5-di-tert-butylphenyl)-1H-pyrazole-3-carboxamide]	6.3	6.4	100 nM
CC(C)(C)c1cc(-n2nc(C(N)=O)c(Cl)c2CC2CCCCC2)cc(C(C)(C)C)n1 [Example 315, 4-Chloro-5-(cyclohexylmethyl)-1-(2,6-di-tert-butylpyridin-4-yl)-1H-pyrazole-3-carboxamide]	6.7	6.7	126 nM
COC(C)(C)c1cc(-n2nc(C(N)=O)c(Cl)c2CC2CCCCC2)cc(C(C)(C)C)c1 [Example 315/1]	6.0/6.0/6.0	6.0/6.0/6.0	1000 nM
Cn1c(C(=O)O)cc(-c2ccc(S(=O)(=O)NC(C)(C)C)c3ccccc23)c1CC1CCCCC1 [Example 317, 4-(4-(N-(tert-Butyl)sulfamoyl)naphthalen-1-yl)-5-(cyclohexylmethyl)-1-methyl-1H-pyrrole-2-carboxylic acid]	6.9	6.9	1260 nM
CC(C)(C)NS(=O)(=O)c1ccc(-n2nc(C(=O)N[C@H]3C[C@H](C(=O)O)C3)nc2CC2CCCCC2)cc1C(C)(C)C [Example 318, trans-3-(1-(3-(tert-Butyl)-4-(N-(tert-butyl)sulfamoyl)phenyl)-5-(cyclohexylmethyl)-1H-1,2,4-triazole-3-carboxamido)cyclobutanecarboxylic acid]	< 4.7	< 4.7	2000 nM
CC(C)(C)NS(=O)(=O)c1ccc(-n2nc(C(=O)NC3CCOCC3)nc2CC2CCCCC2)cc1C(C)(C)C [Example 318/1]	6.2	6.2	2510 nM
Cc1c(C(=O)NC2CCOCC2)cc(-c2ccc(S(=O)(=O)NC(C)(C)C)c(C(F)(F)F)c2)n1CC(C(F)(F)F)C(F)(F)F [Example 319, 5-(4-(N-(tert-Butyl)sulfamoyl)-3-(trifluoromethyl)phenyl)-2-methyl-N-(tetrahydro-2H-pyran-4-yl)-1-(3,3,3-trifluoro-2-(trifluoromethyl)propyl)-1H-pyrrole-3-carboxamide]	6.0	5.8	5010 nM
CC(=O)c1cc(-c2cc(C(C)(C)C)cc(C(C)(C)C)c2)n(CC2CCCCC2)c1C [Example 321, 1-(1-(Cyclohexylmethyl)-5-(3,5-di-tert-butylphenyl)-2-methyl-1H-pyrrol-3-yl)ethanone]	5.8	6.0	794 nM
C=CCCC(=O)c1cc(-c2cc(C(C)(C)C)cc(C(C)(C)C)c2)n(CC2CCCCC2)c1C [Example 322, 1-(1-(Cyclohexylmethyl)-5-(3,5-di-tert-butylphenyl)-2-methyl-1H-pyrrol-3-yl)pent-4-en-1-one]	< 4.7	< 4.7	1580 nM
Cc1c(C(=O)CC2CC2)cc(-c2cc(C(C)(C)C)cc(C(C)(C)C)c2)n1CC1CCCCC1 [Example 324, 1-(1-(Cyclohexylmethyl)-5-(3,5-di-tert-butylphenyl)-2-methyl-1H-pyrrol-3-yl)-2-cyclopropylethanone]	< 4.7	< 4.7	631 nM
Cc1c(S(=O)(=O)CC2CC2)cc(-c2cc(C(C)(C)C)cc(C(C)(C)C)c2)n1CC1CCCCC1 [Example 325, 1-(Cyclohexylmethyl)-3-((cyclopropylmethyl)sulfonyl)-5-(3,5-di-tert-butylphenyl)-2-methyl-1H-pyrrole]	6.1	6.1	398 nM
CCS(=O)(=O)c1cc(-c2cc(C(C)(C)C)cc(C(C)(C)C)c2)n(CC2CCCCC2)c1C [Example 325/1]	6.0	6.3	251 nM
